This note sets out measurements from EPA's ToxValDB 9.5.

Data set [1] deals with Rattus norvegicus. The note with it: chronic, oral, diet, M/F.
In data set [2] the test system is Rattus norvegicus. To be noted: developmental; oral; diet; Fetus: Fetotoxicity.
Data set [3] relates to Homo sapiens. To be noted: clinical.
Data set [4] relates to Rattus norvegicus. The note with it: oral, diet; for NOAEL: chronic, duration: 16 weeks, M, Wistar.
Data set [5] concerns Rattus norvegicus. To be noted: oral.
The subject of data set [6] is Rattus norvegicus. To be noted: subchronic, M/F.
For data set [7], the system named is Rattus norvegicus.
In data set [8] the test system is Oryctolagus sp. The note with it: New Zealand; for NOAEL: duration: 13 days, inhalation.
For data set [9], the system named is Canidae. The note with it: oral, capsule, Beagle.
Data set [10] relates to Canidae. The note with it: subchronic; oral; M/F; Dog Other; red blood cell and liver effects.
Data set [11] deals with Rattus norvegicus. To be noted: for LOAEL: short-term.
The test system of data set [12] is Mus musculus. The note with it: developmental; duration: 9 days; inhalation; whole body; M/F; CF1; developmental.
Data set [13] concerns Rattus norvegicus. The note with it: repeat dose other; oral.
Data set [14] relates to Mus musculus. To be noted: duration: 10 days, inhalation, CF1.
Setting [15] is: chronic, duration: 12 months, M/F, Decreased bodyweight gains & peripheral redness.
[16] abbreviates: duration: 12 months, M/F, Decreased bodyweight gains & peripheral redness.

Converted amounts (≈) assume the structure as drawn. “And” between values parts separate entries of the source, which are not always exact repeats. Identical values can stand only once.

For orientation: LOAEL means the lowest dose or exposure tested at which an adverse effect was seen. One may read the NOAEL as the highest tested level that showed no adverse finding. Take `OCCO` [Ethylene glycol]: the LOAEL in [1] (kidney toxicity) is 1000 mg/kg-day. For the same compound, the NOEL in data set [1] (kidney toxicity) and in [2] was 200 mg/kg-day in each case. In addition, the no observed adverse effect level (NOAEL) in data set [3] (duration: 30 days, inhalation, M, respiratory) came to 23 mg/m3; in data set [4] (Deaths + Body Weight Changes: Mean body weight decrease + Food Consumption: decrease + Water Consumption: increase + Urinalysis: SG decrease…), 150 mg/kg-day; in data set [4] (Water Consumption: increase + Urinalysis: SG decrease, VOL increase + Absolute Organ Weight: Kidney increase + Relative Organ Weight: Kidney…), 150 mg/kg-day.
In the case of `CC1(C)C(C=C(Cl)c2ccc(Cl)cc2)C1C(=O)OC(C#N)c1ccc(F)c(Oc2ccccc2)c1` (stereo not drawn) [Flumethrin], the no observed adverse effect level (NOAEL) in [5] (developmental, Reduced pup survival and bodyweight gain. Maternal toxicity: salivation) was found to be 0.37 mg/kg-day.
With `CCCC[C@@H](C)[C@@H](OC(=O)C[C@@H](CC(=O)O)C(=O)O)[C@H](C[C@@H](C)C[C@H](O)CCCC[C@@H](O)C[C@H](O)[C@H](C)N)OC(=O)C[C@@H](CC(=O)O)C(=O)O` [Fumonisin B1], the NOEL in [5] (subchronic, duration: 90 days, diet, M/F, Fischer 344, Nephrotoxicity) was 0.2 mg/kg-day; in data set [4] (short-term, duration: 28 days, M/F, Fischer 344, Body Weight Changes: decrease + Blood Chemistry: Crn increase, TP increase, Cho increase, TG increase, ALT increase, ALP increase, AST …), < 99 ppm.
What is called LC50 is the concentration lethal to half of the exposed cells or organisms. Higher therefore signals lower toxicity. As a reminder, the LD50 is the dose at which mortality reaches 50%. A high value points to a less toxic substance. In the case of `N#CCCCCC#N` [Hexanedinitrile], the NOAEL in data set [6] (duration: 13 weeks, inhalation, whole body, Crl:CD(SD), Hematologic) was 31 mg/m3; in data set [7] (developmental, duration: 14 days, oral, gavage, Sprague-Dawley), > 80 mg/kg-day. The LC50 in data set [7] (acute, inhalation, Sprague-Dawley) stood at 1.71 µg/mL (≈ 15.8 µM). Further, the LD50 was 138 mg/kg and 301 mg/kg in data set [7] (acute, oral, gavage, Crl:CD(SD)); 2130 mg/kg in data set [8] (acute, dermal, occlusive).
In turn, `F` [Hydrogen fluoride] displayed an LOAEL in data set [3] (duration: 1 hours, inhalation, M, respiratory) of 0.409 mg/m3.
`c1ccc([C@H]2CN3CCSC3=N2)cc1` [Levamisole]: in data set [9] (immunotoxicology, duration: 14 months, Re-emergence of haemolytic anaemia), the LOEL was found to be 1.25 mg/kg-day.
For the compound `CC[C@@]1([C@@H]2O[C@@H]([C@H]3O[C@@](O)(CO)[C@H](C)C[C@@H]3C)C[C@@H]2C)CC[C@H]([C@]2(C)CC[C@]3(C[C@H](O)[C@@H](C)[C@@H]([C@@H](C)[C@@H](OC)[C@H](C)C(=O)O)O3)O2)O1` [Monensin], the no-observed-adverse-effect level (NOAEL) in data set [5] (chronic, duration: 2 years, diet, M/F, Wistar, Decreased bodyweight gain) was found to be 1.14 mg/kg-day.
The compound `[I-].[Na+]` [Sodium iodide] yielded a no-observed-adverse-effect level (NOAEL) in [3] (duration: 14 days, oral, M/F, endocrine) of 0.01 mg/kg-day.
For `C=Cc1ccccc1` [Styrene], in data set [5] (chronic, duration: 2 years, drinking water, M/F, Sprague-Dawley, Decreased bodyweight, females), the NOEL is 7.7 mg/kg-day and 14 mg/kg-day. The LOAEL in [10] turned out to be 400 mg/kg-day; in [11] (duration: 14 days, oral, gavage, M, Wistar, neurological) it was 100 mg/kg-day. The no observed adverse effect level (NOAEL) in data set [10] was 200 mg/kg-day; in data set [3] (duration: 6 hours, inhalation, M, neurological) it was 209 mg/m3.
On to `O=S=O` [Sulfur dioxide], for which the LOAEL in data set [3] (duration: 1 days, inhalation, M/F, respiratory) was 0.262 mg/m3.
In data set [6] (duration: 90 days, oral, gavage, Sprague-Dawley), `[Tl]` [Thallium] showed an LOAEL of 0.04 mg/kg-day.
For `CC[C@H]1OC(=O)C[C@@H](O)[C@H](C)[C@@H](O[C@@H]2O[C@H](C)[C@@H](O)[C@H](N(C)C)[C@H]2O)[C@@H](CCN2C[C@H](C)C[C@H](C)C2)C[C@@H](C)C(=O)/C=C/C(C)=C/[C@@H]1CO[C@@H]1O[C@H](C)[C@@H](O)[C@@H](OC)[C@H]1OC` [Tilmicosin], the LOEL in [9] (setting [15]) and in data set [9] (setting [16]) was 12 mg/kg-day each time. In addition, the NOEL in [9] (setting [15]) and in [9] (setting [16]) was 4 mg/kg-day throughout.
In turn, `[V]` [Vanadium] came in with an LOAEL in data set [11] (duration: 16 days, inhalation, F, Fischer 344, respiratory) of 0.56 mg/m3. The compound further displayed a no-observed-adverse-effect level (NOAEL) in data set [3] (duration: 12 weeks, oral, capsule, M/F, hematological) of 0.12 mg/kg-day.
Turning to `C=CCl` [Vinyl chloride], the figures for the lowest observed adverse effect level (LOAEL) in [1] (liver cell polymorphism) and in [13] were 1.3 mg/kg-day and 1.7 mg/kg-day, respectively. Further, the no observed adverse effect level (NOAEL) in [1] (liver cell polymorphism) is 0.13 mg/kg-day; in [11] (chronic, duration: 149 weeks, oral, diet, M/F, Wistar, hepatic), 0.17 mg/kg-day; in data set [12], 128 mg/m3; in data set [13] it was 0.17 mg/kg-day; in data set [7] (developmental, duration: 10 days, inhalation, Sprague-Dawley) it was 6390 mg/m3; in [7] (reproduction developmental, duration: 10 days, inhalation, F, Sprague-Dawley), < 1280 mg/m3. The no observed adverse effect level (NOAEL) in data set [8] (developmental) was 6390 mg/m3; in data set [8] (reproduction developmental, F), < 1280 mg/m3; in data set [14] (developmental), 1280 mg/m3; in data set [14] (reproduction developmental, F), 128 mg/m3.
